Target: T1, IDO1 (Homo sapiens, UniProt P14902)
T1 construct: HeLa cells were treated with a test compound in the presence of IFNγ, which induces IDO1 expression; host or cells: H1-HeLa cells, IDO1 induced with IFNγ
Assay: Cell-based (HeLa) assay for measurement of IDO1 inhibition (kynurenine levels in supernatant)
Settings: H1-HeLa cells, IDO1 induced with IFNγ, 48 hour incubation, kynurenine read by absorbance at 480 nm; geometric mean of a minimum of four determinations
Procedure: Example B-1. Cell-Based (HeLa) Assay for Measurement of IDO1 Inhibition
To measure IDO1 inhibition in tissue culture, HeLa cells were treated with a test compound in the presence of IFNγ, which induces IDO1 expression. Following incubation, cell supernatants were assayed for kynurenine levels, an indicator of IDO1 activity.
The following day, the test compounds were added in DMSO (0.5% final) at various concentrations, and IDO1 was inducibly expressed by the addition of 50 uL/well of 50 ng/mL of INFγ (Peprotech #300-02) in cell plating media. As a positive control, 50 uL of the cell plating media without IFNγ was added to several wells. Following a 48 hour incubation, the plates were spun down at 1,200 RPM for 5 min at 10° C. 65 μL/well of the supernatant was then transferred to new 384-well plates (Thermo #262160) that contained 10 uL/well of 30% TCA (Sigma # TO699), and the plates were sealed and incubated at 60° C. for 30 min. The plates were then centrifuged for 15 min at 2,000 RPM at 10° C. 40 μL/well of the supernatant was transferred to new 384-well plates (Thermo #262160) and was reacted with 40 μL/well of 2% (w/v) p-dimethlyaminobenzaldehyde (Sigma #156417) in glacial acetic acid (Sigma #A6283). The reaction was incubated at room temperature for 10 min and absorbance at 480 nm was read using a PerkinElmer Envision plate reader.
Data in Table 1 were normalized based on positive (−IFNγ) and negative (+IFNγ) controls and EC50 values were calculated from the fit of the dose—response curves to a four-parameter equation. All EC50 values represent geometric mean values of a minimum of four determinations. These assays generally produced results within 2-fold of the reported mean

T1 sequence (P14902 whole entry): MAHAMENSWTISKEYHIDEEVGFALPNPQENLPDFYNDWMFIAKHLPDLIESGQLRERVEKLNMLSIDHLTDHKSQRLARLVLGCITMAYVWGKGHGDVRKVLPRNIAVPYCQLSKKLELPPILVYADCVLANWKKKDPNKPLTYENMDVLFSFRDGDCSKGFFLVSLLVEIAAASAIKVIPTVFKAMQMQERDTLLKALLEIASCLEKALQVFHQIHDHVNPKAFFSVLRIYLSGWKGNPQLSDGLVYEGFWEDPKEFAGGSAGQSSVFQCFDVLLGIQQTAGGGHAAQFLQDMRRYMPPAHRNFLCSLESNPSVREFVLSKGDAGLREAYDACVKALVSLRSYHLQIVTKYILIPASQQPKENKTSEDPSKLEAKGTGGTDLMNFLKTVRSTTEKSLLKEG

EC50 | SMILES
31 nM | CC1(C)C(=O)N(c2ncc[nH]2)c2cccc(-c3ccc(C(F)(F)F)c(C(=O)Nc4ccc(F)cc4)c3)c21 [Example 40, 5-(1-(1H-imidazol-2-yl)-3,3-dimethyl-2-oxoindolin-4-yl)-N-(4-fluorophenyl)-2-(trifluoromethyl)benzamide]
55 nM | CC1(C)C(=O)N(c2cccc(F)c2F)c2cccc(-c3ccc(C(F)(F)F)c(C(=O)Nc4ccc(F)cc4)c3)c21 [Example 38, 5-(1-(2,3-difluorophenyl)-3,3-dimethyl-2-oxoindolin-4-yl)-N-(4-fluorophenyl)-2-(trifluoromethyl)benzamide]
92 nM | O=C(Nc1ccc(F)cc1)c1cc(-c2cccc3c2C2(CCC2)C(=O)N3c2ncccn2)ccc1C(F)(F)F [Example 33, N-(4-fluorophenyl)-5-(2′-oxo-1′-(pyrimidin-2-yl)spiro[cyclobutane-1,3′-indolin]-4′-yl)-2-(trifluoromethyl)benzamide]
13 nM | CC1(C)C(=O)N(c2ccccn2)c2nccc(-c3ccc(C(F)(F)F)c(C(=O)Nc4ccc(F)cc4)c3)c21 [Example 17, 5-(3,3-dimethyl-2-oxo-1-(pyridin-2-yl)-2,3-dihydro-1H-pyrrolo[2,3-b]pyridin-4-yl)-N-(4-fluorophenyl)-2-(trifluoromethyl)benzamide]
17 nM | CC1(C)C(=O)N(c2ncccn2)c2cccc(-c3cnc(C(F)(F)F)c(C(=O)Nc4ccc(F)cc4)c3)c21 [Example 35, 5-(3,3-dimethyl-2-oxo-1-(pyrimidin-2-yl)indolin-4-yl)-N-(4-fluorophenyl)-2-(trifluoromethyl)nicotinamide]
36 nM | CC1(C)C(=O)N(c2cncc(F)c2)c2cccc(-c3cnc(C(F)(F)F)c(C(=O)Nc4ccc(F)cc4)c3)c21 [Example 20, N-(4-fluorophenyl)-5-(1-(5-fluoropyridin-3-yl)-3,3-dimethyl-2-oxoindolin-4-yl)-2-(trifluoromethyl)nicotinamide]
48 nM | CC1(C)C(=O)N(c2ncccn2)c2cccc(-c3ccc(OC(F)(F)F)c(C(=O)Nc4ccc(F)cc4)c3)c21 [Example 24, 5-(3,3-dimethyl-2-oxo-1-(pyrimidin-2-yl)indolin-4-yl)-N-(4-fluorophenyl)-2-(trifluoromethoxy)benzamide]
11 nM | CC1(C)C(=O)N(c2cnccn2)c2cccc(-c3ccc(C(F)(F)F)c(C(=O)Nc4ccc(F)cc4)c3)c21 [Example 4, 5-(3,3-dimethyl-2-oxo-1-(pyrazin-2-yl)indolin-4-yl)-N-(4-fluorophenyl)-2-(trifluoromethyl)benzamide]
41 nM | CC1(C)C(=O)N(c2c[nH]cn2)c2cccc(-c3ccc(C(F)(F)F)c(C(=O)Nc4ccc(F)cc4)c3)c21 [Example 11, 5-(1-(1H-imidazol-4-yl)-3,3-dimethyl-2-oxoindolin-4-yl)-N-(4-fluorophenyl)-2-(trifluoromethyl)benzamide]
311 nM | Cn1cc(N2C(=O)C(C)(C)c3c(-c4ccc(C(F)(F)F)c(C(=O)Nc5ccc(F)cc5)c4)cccc32)cn1 [Example 23, 5-(3,3-dimethyl-1-(1-methyl-1H-pyrazol-4-yl)-2-oxoindolin-4-yl)-N-(4-fluorophenyl)-2-(trifluoromethyl)benzamide]
33 nM | CC1(C)C(=O)N(c2ccncn2)c2cccc(-c3cnc(C(F)(F)F)c(C(=O)Nc4ccc(F)cc4)c3)c21 [Example 49, 5-(3,3-dimethyl-2-oxo-1-(pyrimidin-4-yl)indolin-4-yl)-N-(4-fluorophenyl)-2-(trifluoromethyl)nicotinamide]
26 nM | CC1(C)C(=O)N(c2cccnc2)c2cccc(-c3cnc(C(F)(F)F)c(C(=O)Nc4ccc(F)cc4)c3)c21 [Example 36, 5-(3,3-dimethyl-2-oxo-1-(pyridin-3-yl)indolin-4-yl)-N-(4-fluorophenyl)-2-(trifluoromethyl)nicotinamide]

Second part, the compound before the results:

SMILES | EC50
CC1(C)C(=O)N(c2ncccn2)c2cccc(-c3ccc(C(F)(F)F)c(C(=O)Nc4ccccc4)c3)c21 [Example 37, 5-(3,3-dimethyl-2-oxo-1-(pyrimidin-2-yl)indolin-4-yl)-N-phenyl-2-(trifluoromethyl)benzamide] | 28 nM
O=C(Nc1ccc(F)cc1)c1cc(-c2cccc3c2[nH]c(=O)n3-c2ncccn2)ccc1C(F)(F)F [Example 29, N-(4-fluorophenyl)-5-(2-oxo-1-(pyrimidin-2-yl)-2,3-dihydro-1H-benzo[d]imidazol-4-yl)-2-(trifluoromethyl)benzamide] | 179 nM
CC1(C)C(=O)N(c2cccnc2)c2cccc(-c3ccc(C(F)(F)F)c(-c4nc5cc(F)ccc5[nH]4)c3)c21 [Example 56, 4-(3-(5-fluoro-1H-benzo[d]imidazol-2-yl)-4-(trifluoromethyl)phenyl)-3,3-dimethyl-1-(pyridin-3-yl)indolin-2-one] | 3030 nM
CC1(C)C(=O)N(c2ccncn2)c2cccc(-c3cnc(C(F)(F)F)c(C(=O)Nc4ccc(F)c(F)c4)c3)c21 [Example 51, N-(3,4-difluorophenyl)-5-(3,3-dimethyl-2-oxo-1-(pyrimidin-4-yl)indolin-4-yl)-2-(trifluoromethyl)nicotinamide] | 41 nM
Cc1ccc(-c2cccc3c2C(C)(C)C(=O)N3c2ncccn2)cc1C(=O)Nc1ccc(F)cc1 [Example 9, 5-(3,3-dimethyl-2-oxo-1-(pyrimidin-2-yl)indolin-4-yl)-N-(4-fluorophenyl)-2-methylbenzamide] | 33 nM
CC1(C)C(=O)N(c2cccnc2)c2nccc(-c3ccc(C(F)(F)F)c(C(=O)Nc4ccccc4)c3)c21 [Example 42, 5-(3,3-dimethyl-2-oxo-1-(pyridin-3-yl)-2,3-dihydro-1H-pyrrolo[2,3-b]pyridin-4-yl)-N-phenyl-2-(trifluoromethyl)benzamide] | 37 nM
Cc1ccc(-c2cccc3c2[nH]c(=O)n3-c2cccc(F)c2F)cc1C(=O)Nc1ccc(F)cc1 [Example 22, 5-(1-(2,3-difluorophenyl)-2-oxo-2,3-dihydro-1H-benzo[d]imidazol-4-yl)-N-(4-fluorophenyl)-2-methylbenzamide] | 62 nM
CC1(C)C(=O)N(c2ccccn2)c2nccc(-c3cnc(C(F)(F)F)c(C(=O)Nc4ccc(F)c(F)c4)c3)c21 [Example 43, N-(3,4-difluorophenyl)-5-(3,3-dimethyl-2-oxo-1-(pyridin-2-yl)-2,3-dihydro-1H-pyrrolo[2,3-b]pyridin-4-yl)-2-(trifluoromethyl)nicotinamide] | 103 nM
Cc1ccc(-c2cccc3c2oc(=O)n3-c2cccc(F)c2F)cc1C(=O)Nc1ccc(F)cc1 [Example 39, 5-(3-(2,3-difluorophenyl)-2-oxo-2,3-dihydrobenzo[d]oxazol-7-yl)-N-(4-fluorophenyl)-2-methylbenzamide] | 47 nM
CC1(C)C(=O)N(c2cccnc2)c2nccc(-c3ccc(C(F)(F)F)c(C(=O)Nc4ccc(C#N)cn4)c3)c21 [Example 19, N-(5-cyanopyridin-2-yl)-5-(3,3-dimethyl-2-oxo-1-(pyridin-3-yl)-2,3-dihydro-1H-pyrrolo[2,3-b]pyridin-4-yl)-2-(trifluoromethyl)benzamide] | 33 nM
Cc1ccc(-c2cccc3c2C(C)(C)C(=O)N3Cc2ncccn2)cc1C(=O)Nc1ccc(F)cc1 [Example 53, 5-(3,3-dimethyl-2-oxo-1-(pyrimidin-2-ylmethyl)indolin-4-yl)-N-(4-fluorophenyl)-2-methylbenzamide] | 1020 nM
Cc1ccc(-c2cccc3c2C(C)(C)C(=O)N3c2ncccn2)c(F)c1C(=O)Nc1ccc(F)cc1 [Example 45, 3-(3,3-dimethyl-2-oxo-1-(pyrimidin-2-yl)indolin-4-yl)-2-fluoro-N-(4-fluorophenyl)-6-methylbenzamide] | 32 nM
Cc1ncc(-c2cccc3c2C(C)(C)C(=O)N3c2ncccn2)cc1C(=O)Nc1ccc(F)cc1 [Example 14, 5-(3,3-dimethyl-2-oxo-1-(pyrimidin-2-yl)indolin-4-yl)-N-(4-fluorophenyl)-2-methylnicotinamide] | 105 nM
CC1(C)C(=O)N(c2ncccn2)c2cccc(-c3ccc(C(F)(F)F)c(C(=O)Nc4ccncn4)c3)c21 [Example 48, 5-(3,3-dimethyl-2-oxo-1-(pyrimidin-2-yl)indolin-4-yl)-N-(pyrimidin-4-yl)-2-(trifluoromethyl)benzamide] | 73 nM
CC1(C)C(=O)N(c2cccnc2)c2cccc(-c3cnc(C(F)(F)F)c(C(=O)Nc4ccccc4)c3)c21 [Example 58, 5-(3,3-dimethyl-2-oxo-1-(pyridin-3-yl)indolin-4-yl)-N-phenyl-2-(trifluoromethyl)nicotinamide] | 53 nM
CC1(C)C(=O)N(c2ncccn2)c2cccc(-c3ccc(C(F)(F)F)c(C(=O)Nc4cncnc4)c3)c21 [Example 47, 5-(3,3-dimethyl-2-oxo-1-(pyrimidin-2-yl)indolin-4-yl)-N-(pyrimidin-5-yl)-2-(trifluoromethyl)benzamide] | 810 nM
